This passage reports inhibition, zone of inhibition and inhibition zone (IZ) results from ChEMBL document CHEMBL3044711, “Synthesis, characterization, and antimicrobial activity of some new 2-diazo-benzimidazole derivatives and their Ni(II), Cu(II), and Ag(I) complexes” (2013).

What all share (format): functional
Assay [1] relates to Candida albicans. The assay is described as follows: Antimicrobial activity against Candida albicans assessed as diameter of growth inhibition zone at 1 mg/ml after 48 hr by potato dextrose agar well diffusion method. In general terms: A growth-free zone around the sample is the usual read-out of agar diffusion tests.
In assay [2] the test system is Escherichia coli. The assay is described as follows: Antimicrobial activity against Escherichia coli assessed as diameter of growth inhibition zone at 1 mg/ml after 24 hr by nutrient agar well diffusion method. The following applies: read-out: DIZ.
Assay [3] has as its system Staphylococcus aureus. The assay is described as follows: Antimicrobial activity against Staphylococcus aureus assessed as diameter of growth inhibition zone at 1 mg/ml after 24 hr by nutrient agar well diffusion method. The note with it: for zone of inhibition at 1000 µg/mL: read-out: DIZ.
Assay [4] has as its system Bacillus subtilis. Description: Antimicrobial activity against Bacillus subtilis assessed as diameter of growth inhibition zone at 1 mg/ml after 24 hr by nutrient agar well diffusion method. The following applies: for zone of inhibition at 1000 µg/mL: read-out: DIZ.
For assay [5], the system named is Klebsiella pneumoniae. The assay is described as follows: Antimicrobial activity against Klebsiella pneumoniae assessed as diameter of growth inhibition zone at 1 mg/ml after 24 hr by nutrient agar well diffusion method.
Assay [6] deals with Aspergillus niger. The assay is described as follows: Antimicrobial activity against Aspergillus niger assessed as diameter of growth inhibition zone at 1 mg/ml after 48 hr by potato dextrose agar well diffusion method.

Calls of active or inactive are those of the source. The calls are words filed in the database; no cut-off is given here.

In the case of `N#CC(C#N)/N=N/c1nc2ccccc2[nH]1`, the inhibition result in assay [1], in assay [3], in assay [4], in assay [5] and in assay [6] was “inactive” each time. In addition, the zone of inhibition at 1000 µg/mL in assay [2] was 10.8 mm.

Turning to NYSTATIN, the inhibition zone (IZ) in assay [1] was 36 mm; in assay [6], 25 mm.

Take `CCOC(=O)C(C#N)/N=N/c1nc2ccccc2[nH]1` (stereo not drawn): the zone of inhibition at 1000 µg/mL in assay [1] (read-out: DIZ) came out at 9 mm; in assay [2], 8.5 mm; in assay [3], 7.5 mm; in assay [4], 8 mm; in assay [5] (read-out: DIZ), 9 mm; in assay [6] (read-out: DIZ), 8.5 mm.

For the compound `CC1(C)S[C@@H]2[C@H](NC(=O)[C@H](N)c3ccccc3)C(=O)N2[C@H]1C(=O)O` [AMPICILLIN], the zone of inhibition at 1000 µg/mL in assay [2] stood at 31.2 mm; in assay [3] it was 30.5 mm; in assay [4] it was 29.5 mm. Moreover, the inhibition entry in assay [5] was “inactive”.
